Assay results as given in patent US20170355705A1 (GlaxoSmithKline Intellectual Property (No.2) Limited, priority 2014, published 2017).
Structures can show the parent of a compound that is named as a salt.

Biological target: T1, SIRT1 (Homo sapiens, UniProt Q96EB6)
T1 sequence (Q96EB6 1-747): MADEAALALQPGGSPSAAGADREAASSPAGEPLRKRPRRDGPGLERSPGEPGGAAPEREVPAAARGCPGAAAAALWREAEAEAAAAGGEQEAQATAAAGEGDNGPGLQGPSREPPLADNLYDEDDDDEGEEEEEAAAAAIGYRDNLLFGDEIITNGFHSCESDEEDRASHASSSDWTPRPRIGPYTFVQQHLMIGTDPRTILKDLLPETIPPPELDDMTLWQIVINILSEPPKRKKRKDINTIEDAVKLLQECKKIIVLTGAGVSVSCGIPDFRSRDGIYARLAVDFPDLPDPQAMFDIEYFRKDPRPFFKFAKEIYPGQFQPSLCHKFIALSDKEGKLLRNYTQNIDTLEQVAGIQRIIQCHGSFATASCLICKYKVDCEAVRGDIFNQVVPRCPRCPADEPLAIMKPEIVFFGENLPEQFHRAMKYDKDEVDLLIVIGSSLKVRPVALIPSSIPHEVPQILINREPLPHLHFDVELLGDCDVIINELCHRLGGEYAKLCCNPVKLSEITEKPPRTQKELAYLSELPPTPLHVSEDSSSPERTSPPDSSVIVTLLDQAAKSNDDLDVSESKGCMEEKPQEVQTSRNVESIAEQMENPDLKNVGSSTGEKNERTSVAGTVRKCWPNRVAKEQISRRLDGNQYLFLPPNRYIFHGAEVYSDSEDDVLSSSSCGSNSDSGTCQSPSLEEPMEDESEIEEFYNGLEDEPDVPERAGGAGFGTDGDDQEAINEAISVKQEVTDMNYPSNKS
Test: Trp mass spectrometry assay of SIRT1 activity (EC1.5, percent maximum activation)
Assay type: biochemical
Conditions: Trp mass spectrometry assay; for TRP Activity (EC1.5): EC1.5 = concentration giving 150% activation of SIRT1; for TRP MAX RESP (percent maximum fold activation): percent maximum activation of SIRT1
Text: Mass spectrometry based assays were used to identify modulators of SIRT1 activity. […] The peptide was labeled with the fluorophore 5TMR (excitation 540 nm/emission 580 nm) at the C-terminus. The sequence of the peptide substrate was based on p53 with several modifications. In addition, the methionine residue naturally present in the sequence was replaced with the norleucine because the methionine may be susceptible to oxidation during synthesis and purification.
The Trp mass spectrometry assay was conducted as follows. […] The SIRT1 protein was obtained by cloning the SirT1 gene into a T7-promoter containing vector, which was then expressed in BL21(DE3) bacterial cells and purified as described in further detail below. Test compound was added at varying concentrations to this reaction mixture and the resulting reactions were monitored. After the 25 minute incubation with SIRT1, 10 μL of 10% formic acid was added to stop the reaction. The resulting reactions were sealed and frozen for later mass spec analysis. The relative SIRT1 activity was then determined by measuring the amount of O-acetyl-ADP-ribose (OAADPR) formed (or, alternatively, the amount of deacetylated Trp peptide generated) by the NAD-dependent sirtuin deacetylation reaction in the presence of varying concentrations of the test compound versus control reactions lacking the test compound. The degree to which the test agent activated deacetylation by SIRT1 was expressed as EC1.5 (i.e., the concentration of compound required to increase SIRT1 activity by 50% over the control lacking test compound), and Percent Maximum Activation (i.e., the maximum activity relative to control (100%) obtained for the test compound).
This time point was the same as that used for test compounds and, within the linear range, the endpoint represents a change in velocity.
For the above assay, SIRT1 protein was expressed and purified as follows. The SirT1 gene was cloned into a T7-promoter containing vector and transformed into BL21(DE3). The protein was expressed by induction with 1 mM IPTG as an N-terminal His-tag fusion protein at 18° C. overnight and harvested at 30,000×g. Cells were lysed with lysozyme in lysis buffer (50 mM Tris-HCl, 2 mM Tris[2-carboxyethyl]phosphine (TCEP), 10 μM ZnCl2, 200 mM NaCl) and further treated with sonication for 10 min for complete lysis. The protein was purified over a Ni-NTA column (Amersham) and fractions containing pure protein were pooled, concentrated and run over a sizing column (Sephadex S200 26/60 global). The peak containing soluble protein was collected and run on an Ion-exchange column (MonoQ). Gradient elution (200 mM-500 mM NaCl) yielded pure protein. This protein was concentrated and dialyzed against dialysis buffer (20 mM Tris-HCl, 2 mM TCEP) overnight. The protein was aliquoted and frozen at −80° C. until further use.
“NT” means not tested; “ND” means not determinable.

| TRP Activity (EC1.5) | TRP MAX RESP (percent maximum fold activation) | Compound |
| --- | --- | --- |
| B (EC1.5 1-25 μM) | A (Fold activation ≧150%) | Cc1cc(-c2nc3c(cc2C)N2CC[C@@H](C2)N3C(=O)Nc2ccccn2)ccn1 [Example 36, (4S)-8-methyl-7-(2-methylpyridin-4-yl)-N-(pyridin-2-yl)-3,4-dihydro-1,4-methanopyrido[2,3-b][1,4]diazepine-5(2H)-carboxamide] |
| B (EC1.5 1-25 μM) | A (Fold activation ≧150%) | Cc1cc(-c2nc3c(cc2Cl)N2CC[C@@H](C2)N3C(=O)Nc2ccnc(OC[C@@H](O)CO)c2)ccn1 [Example 37, (4S)-8-chloro-N-(2-((S)-2,3-dihydroxypropoxy)pyridin-4-yl)-7-(2-methylpyridin-4-yl)-3,4-dihydro-1,4-methanopyrido[2,3-b][1,4]diazepine-5(2H)-carboxamide] |
| B (EC1.5 1-25 μM) | A (Fold activation ≧150%) | Cc1cc(-c2nc3c(cc2Cl)N2CC[C@@H](C2)N3C(=O)Nc2cc(OC[C@H](O)CO)ccn2)ccn1 [Example 38, (4S)-8-chloro-N-(4-((R)-2,3-dihydroxypropoxy)pyridin-2-yl)-7-(2-methylpyridin-4-yl)-3,4-dihydro-1,4-methanopyrido[2,3-b][1,4]diazepine-5(2H)-carboxamide] |
| B (EC1.5 1-25 μM) | A (Fold activation ≧150%) | Cc1cc(-c2nc3c(cc2Cl)N2CC[C@@H](C2)N3C(=O)Nc2ccnc(OC[C@H](O)CO)c2)ccn1 [Example 39, (4S)-8-chloro-N-(2-((R)-2,3-dihydroxypropoxy)pyridin-4-yl)-7-(2-methylpyridin-4-yl)-3,4-dihydro-1,4-methanopyrido[2,3-b][1,4]diazepine-5(2H)-carboxamide] |
| B (EC1.5 1-25 μM) | A (Fold activation ≧150%) | Cc1cc(-c2nc3c(cc2Cl)N2CC[C@@H](C2)N3C(=O)Nc2cnc(OC[C@@H](O)CO)cn2)ccn1 [Example 40, (4S)-8-chloro-N-(5-((S)-2,3-dihydroxypropoxy)pyrazin-2-yl)-7-(2-methylpyridin-4-yl)-3,4-dihydro-1,4-methanopyrido[2,3-b][1,4]diazepine-5(2H)-carboxamide] |

More lines, now with the values behind:

| Compound | TRP Activity (EC1.5) | TRP MAX RESP (percent maximum fold activation) |
| --- | --- | --- |
| Cc1cc(-c2nc3c(c(C)c2C)N2CC[C@@H](C2)N3C(=O)Nc2ccccn2)ccn1 [Example 25, (4S)-8,9-dimethyl-7-(2-methylpyridin-4-yl)-N-(pyridin-2-yl)-3,4-dihydro-1,4-methanopyrido[2,3-b][1,4]diazepine-5(2H)-carboxamide] | B (EC1.5 1-25 μM) | A (Fold activation ≧150%) |
| Cc1cc(-c2nc3c(cc2Cl)N2CC[C@@H](C2)N3C(=O)Nc2cc(OC[C@@H](O)CO)ccn2)ccn1 [Example 27, (4S)-8-chloro-N-(4-((S)-2,3-dihydroxypropoxy)pyridin-2-yl)-7-(2-methylpyridin-4-yl)-3,4-dihydro-1,4-methanopyrido[2,3-b][1,4]diazepine-5(2H)-carboxamide] | B (EC1.5 1-25 μM) | A (Fold activation ≧150%) |
| Cl.O=C(Nc1ccnc(OC[C@@H](O)CO)n1)N1c2nc(-c3cccc(C(F)(F)F)c3)c(Cl)cc2N2CC[C@H]1C2 [Example 28, (4S)-8-chloro-N-(2-((S)-2,3-dihydroxypropoxy)pyrimidin-4-yl)-7-(3-(trifluoromethyl)phenyl)-3,4-dihydro-1,4-methanopyrido[2,3-b][1,4]diazepine-5(2H)-carboxamide, Hydrochloride] | A (EC1.5<1 μM) | A (Fold activation ≧150%) |
| Cc1cc(-c2nc3c(cc2Cl)N2CC[C@@H](C2)N3C(=O)Nc2cnc(OC[C@H](O)CO)cn2)ccn1 [Example 29, (4S)-8-chloro-N-(5-((R)-2,3-dihydroxypropoxy)pyrazin-2-yl)-7-(2-methylpyridin-4-yl)-3,4-dihydro-1,4-methanopyrido[2,3-b][1,4]diazepine-5(2H)-carboxamide] | B (EC1.5 1-25 μM) | A (Fold activation ≧150%) |
| O=C(Nc1ccnc(OC[C@@H](O)CO)n1)N1c2nc(-c3cccc(C(F)(F)F)c3)c(Cl)cc2N2CC[C@H]1C2 [Example 30, (4S)-8-chloro-N-(2-((S)-2,3-dihydroxypropoxy)pyrimidin-4-yl)-7-(3-(trifluoromethyl)phenyl)-3,4-dihydro-1,4-methanopyrido[2,3-b][1,4]diazepine-5(2H)-carboxamide] | A (EC1.5<1 μM) | A (Fold activation ≧150%) |
| O=C(Nc1cc(OC[C@H](O)CO)ccn1)N1c2nc(-c3cccc(C(F)(F)F)c3)c(Cl)cc2N2CC[C@H]1C2 [Example 31, (4S)-8-chloro-N-(4-((R)-2,3-dihydroxypropoxy)pyridin-2-yl)-7-(3-(trifluoromethyl)phenyl)-3,4-dihydro-1,4-methanopyrido[2,3-b][1,4]diazepine-5(2H)-carboxamide] | B (EC1.5 1-25 μM) | A (Fold activation ≧150%) |
| O=C(Nc1cc(OC[C@H](O)CO)ccn1)N1c2nc(-c3cccc(C(F)(F)F)c3)c(Cl)cc2N2CC[C@H]1C2 [Example 32, (4S)-8-chloro-N-(4-((R)-2,3-dihydroxypropoxy)pyridin-2-yl)-7-(3-(trifluoromethyl)phenyl)-3,4-dihydro-1,4-methanopyrido[2,3-b][1,4]diazepine-5(2H)-carboxamide, Hydrochloride] | B (EC1.5 1-25 μM) | A (Fold activation ≧150%) |
| O=C(Nc1cnc(OC[C@@H](O)CO)cn1)N1c2nc(-c3cccc(C(F)(F)F)c3)c(Cl)cc2N2CC[C@H]1C2 [Example 33, (4S)-8-chloro-N-(5-((S)-2,3-dihydroxypropoxy)pyrazin-2-yl)-7-(3-(trifluoromethyl)phenyl)-3,4-dihydro-1,4-methanopyrido[2,3-b][1,4]diazepine-5(2H)-carboxamide] | B (EC1.5 1-25 μM) | A (Fold activation ≧150%) |
| O=C(Nc1cnc(OC[C@H](O)CO)cn1)N1c2nc(-c3cccc(C(F)(F)F)c3)c(Cl)cc2N2CC[C@H]1C2 [Example 34, (4S)-8-chloro-N-(5-((R)-2,3-dihydroxypropoxy)pyrazin-2-yl)-7-(3-(trifluoromethyl)phenyl)-3,4-dihydro-1,4-methanopyrido[2,3-b][1,4]diazepine-5(2H)-carboxamide] | B (EC1.5 1-25 μM) | A (Fold activation ≧150%) |
| O=C(Nc1ccccn1)N1c2nc(-c3cccc(C(F)(F)F)c3)c(Cl)cc2N2CC[C@H]1C2 [Example 35, (4S)-8-chloro-N-(pyridin-2-yl)-7-(3-(trifluoromethyl)phenyl)-3,4-dihydro-1,4-methanopyrido[2,3-b][1,4]diazepine-5(2H)-carboxamide] | A (EC1.5<1 μM) | A (Fold activation ≧150%) |
